Measurements taken from US20260000686A1, “CANNABIDIOL COMPOSITIONS FOR THE TREATMENT OF INFLAMMATION” (RevRx, LLC, priority 2019, published 2026).

Test system: patient (joint, muscle, and arthritic aches and pains)
Assay: Case studies: patient-reported pain relief with topical Cryogel and with previously tried treatments
Type: in vivo, human
[1] = Case #19: bilateral inflammation of the knees post exercise/running
[2] = Case #2: chronic knee pain and muscle soreness
[3] = Case #7: chronic lower back pain, history of RA
[4] = Case #8: diabetic, peripheral neuropathy pain in feet
[5] = Case #21: inflammation of the right knee

COc1ccc2cc([C@H](C)C(=O)[O-])ccc2c1.[Na+] [ALEVER]
relief from previously tried treatment (patient-reported) (Case #5: sore/stiff neck): limited relief

Cc1ccc(-c2cc(C(F)(F)F)nn2-c2ccc(S(N)(=O)=O)cc2)cc1 [Celebrex]
relief from previously tried treatment (patient-reported) [1]: Limited Relief

CC(C)Cc1ccc(C(C)C(=O)O)cc1 (stereo not shown) [Ibuprofen]
relief from previously tried treatment (patient-reported) [2]: mild pain relief
relief from previously tried treatment (patient-reported) (Case #4: chronic knee pain and muscle soreness): minimal relief
relief from previously tried treatment (patient-reported) [3]: limit pain relief
relief from previously tried treatment (patient-reported) [4]: limit pain relief
relief from previously tried treatment (patient-reported) (Case #9: quad pain associated with exercise): no relief
relief from previously tried treatment (patient-reported) (Case #10: Tennis Elbow of the right elbow): No relief
relief from previously tried treatment (patient-reported) (Case #11: upper left trapezius muscle pain): No relief
relief from previously tried treatment (patient-reported) (Case #14: right calf muscle pain): limited relief
relief from previously tried treatment (patient-reported) (Case #15: ankle swelling and soreness): limited relief
relief from previously tried treatment (patient-reported) (Case #16: labrum tear post-surgical repair, pain and soreness): limited relief
relief from previously tried treatment (patient-reported) (Case #17: sciatica nerve pain, upper right hip area): limited relief
relief from previously tried treatment (patient-reported) (Case #18: burning, stinging pain and inflammation in upper right elbow): limited relief
relief from previously tried treatment (patient-reported) [1]: limited relief
relief from previously tried treatment (patient-reported) [5]: Limited Relief

CC(C)C[C@H](CN)CC(=O)O [LYRICA®]
relief from previously tried treatment (patient-reported) [4]: limit pain relief

COc1ccc2cc([C@H](C)C(=O)O)ccc2c1 [Naproxen]
relief from previously tried treatment (patient-reported) [2]: mild pain relief
relief from previously tried treatment (patient-reported) [3]: limit pain relief
relief from previously tried treatment (patient-reported) (Case #13: quadricep tear or strain, right leg muscle pain): limited relief

COc1ccc2c3c1O[C@H]1C(=O)CC[C@@]4(O)[C@@H](C2)N(C)CC[C@]314.Cl [OxyContin®]
pain score (Case #1: RA, spinal fusion C3-C4, immediately post-op while taking prescription pain management medication, 1 no-pain, 10 most pain): 10

Clc1ccc2nsnc2c1NC1=NCCN1 [Tizanidine]
relief from previously tried treatment (patient-reported) [3]: limit pain relief

COc1cccc(C2(O)CCCCC2CN(C)C)c1 (stereo not shown) [Tramadol]
relief from previously tried treatment (patient-reported) [3]: limit pain relief

CC(=O)Nc1ccc(O)cc1 [Tylenol]
relief from previously tried treatment (patient-reported) [1]: Limited relief
relief from previously tried treatment (patient-reported) [5]: No relief
